# Assay results: ChEMBL document CHEMBL6114969, “Ultra-short lipopeptides containing d-amino acid exhibiting excellent stability and antibacterial activity against gram-positive bacteria” (Eur J Med Chem, 2025)
# Activity calls are given as the source filed them. The rule behind the calls is not given here. Where a SMILES comes first, the peptide text is derived from it. Bridges are numbered along the chain shown (N, C = ends). [ ]: non-standard residue; d: D form. The star is where a group is joined. X1 = CC[C@H](C)CCCCC(=O)*; dDab = NCC[C@@H](N)C(=O)O; Dab = NCC[C@H](N)C(=O)O
# Legend:
# Staphylococcus aureus [1] = assay: Antibacterial activity against Staphylococcus aureus ATCC 25923 incubated for 18 to 24 hrs by broth microdilution method; assay type: functional; conditions: time 18-24 hrs
# Staphylococcus aureus [2] = assay: Antibacterial activity against Staphylococcus aureus ATCC 29213 incubated for 18 to 24 hrs by broth microdilution method; assay type: functional; conditions: time 18-24 hrs
# Staphylococcus aureus [3] = assay: Antibacterial activity against methicillin-resistant Staphylococcus aureus ATCC 33591 incubated for 18 to 24 hrs by broth microdilution method; assay type: functional; conditions: time 18-24 hrs
# [4] = test system: Staphylococcus epidermidis; assay: Antibacterial activity against Staphylococcus epidermidis ATCC 12228 incubated for 18 to 24 hrs by broth microdilution method; assay type: functional; conditions: time 18-24 hrs
# Enterococcus faecalis = assay: Antibacterial activity against Enterococcus faecalis ATCC 29212 incubated for 18 to 24 hrs by broth microdilution method; assay type: functional; conditions: time 18-24 hrs
# Staphylococcus aureus [5] = assay: Induction of drug resistance in methicillin-resistant Staphylococcus aureus ATCC 33591 at sub-MIC measured after 4 passages; assay type: functional, organism-based
# Staphylococcus aureus [6] = assay: Induction of drug resistance in methicillin-resistant Staphylococcus aureus ATCC 33591 assessed as fold increase in MIC at sub-MIC measured after 8 passages relative to control; assay type: functional
# Staphylococcus aureus [7] = assay: Induction of drug resistance in Staphylococcus aureus ATCC 25923 at sub-MIC measured after 2 passages; assay type: functional, organism-based
# Staphylococcus aureus [8] = assay: Induction of drug resistance in Staphylococcus aureus ATCC 25923 assessed as fold increase in MIC at sub-MIC measured after 7 passages relative to control; assay type: functional
# Staphylococcus aureus [9] = assay: Antibacterial activity against drug-resistant Staphylococcus aureus ATCC 25923 incubated for 18 to 24 hrs; assay type: functional; conditions: time 18-24 hrs
# Staphylococcus aureus [10] = assay: Antibacterial activity against ciprofloxacin-resistant Staphylococcus aureus ATCC 25923 incubated for 18 to 24 hrs; assay type: functional; conditions: time 18-24 hrs
# Staphylococcus aureus [11] = assay: Antibacterial activity against polymyxin B-resistant Staphylococcus aureus ATCC 25923 incubated for 18 to 24 hrs; assay type: functional; conditions: time 18-24 hrs
# Staphylococcus aureus [12] = assay: Antibacterial activity against drug-resistant methicillin-resistant Staphylococcus aureus ATCC 33591 incubated for 18 to 24 hrs; assay type: functional; conditions: time 18-24 hrs
# Staphylococcus aureus [13] = assay: Antibacterial activity against ciprofloxacin-resistant methicillin-resistant Staphylococcus aureus ATCC 33591 incubated for 18 to 24 hrs; assay type: functional; conditions: time 18-24 hrs
# Staphylococcus aureus [14] = assay: Antibacterial activity against polymyxin B-resistant methicillin-resistant Staphylococcus aureus ATCC 33591 incubated for 18 to 24 hrs; assay type: functional; conditions: time 18-24 hrs
# Staphylococcus aureus [15] = assay: Induction of drug resistance in methicillin-resistant Staphylococcus aureus ATCC 33591 assessed as fold increase in MIC at sub-MIC measured after 14 passages relative to control; assay type: functional
# Staphylococcus aureus [16] = assay: Induction of drug resistance in Staphylococcus aureus ATCC 25923 assessed as fold increase in MIC at sub-MIC measured after 10 passages relative to control; assay type: functional
# Staphylococcus aureus [17] = assay: Antibacterial activity against methicillin-resistant Staphylococcus aureus ATCC 33591 infected in Balb/c mouse model of acute systemic infection at 10 mg/kg, ip measured after 5 days; assay type: functional, organism-based; conditions: time 5.0 day
# Staphylococcus aureus [18] = assay: Antibacterial activity against methicillin-resistant Staphylococcus aureus ATCC 33591 infected in Balb/c mouse model of pneumonia infection assessed as reduction in bacterial load in lung at 10 mg/kg, ip administered thrice at 4, 8 and 12 hrs post-infection measured after 24 hrs post-infection; assay type: functional, organism-based; conditions: time 20.0 hrs
# Staphylococcus aureus [19] = assay: (§1) Antibacterial activity against methicillin-resistant Staphylococcus aureus ATCC 33591 infected in Balb/c mouse model of pneumonia infection assessed as reduction in inflammatory cell infiltration in lung at 10 mg/kg, ip administered thrice at 4, 8 and 12 hrs post-infection measured after 24 hrs post-infection by H and E staining based analysis; assay type: functional, organism-based; conditions: time 20.0 hrs
# Staphylococcus aureus [20] = assay: as §1, with “bleeding” for “inflammatory cell infiltration”; assay type: functional, organism-based; conditions: time 20.0 hrs
# Staphylococcus aureus [21] = assay: as §1, with “alveolar contraction” for “inflammatory cell infiltration”; assay type: functional, organism-based
# Staphylococcus aureus [22] = assay: (§2) Antibacterial activity against methicillin-resistant Staphylococcus aureus ATCC 33591 infected in Balb/c mouse model of pneumonia infection assessed as reduction in TNF-alpha activity in lung at 10 mg/kg, ip administered thrice at 4, 8 and 12 hrs post-infection measured after 24 hrs post-infection by IHC analysis; assay type: functional, organism-based; conditions: time 20.0 hrs
# Staphylococcus aureus [23] = assay: as §2, with “IL-1beta” for “TNF-alpha”; assay type: functional, organism-based; conditions: time 20.0 hrs
# Staphylococcus aureus [24] = assay: (§3) Antibacterial activity against methicillin-resistant Staphylococcus aureus ATCC 33591 infected in Balb/c mouse model of skin wound infection assessed as reduction in bacterial load in skin at 10 mg/kg, ip administered thrice at 1, 24 and 48 hrs post-infection measured after 72 hrs post-infection; assay type: functional, organism-based; conditions: time 71.0 hrs
# Staphylococcus aureus [25] = assay: as §1, with “skin wound” for “pneumonia”, “skin” for “lung”, “1, 24” for “4, 8”, “48” for “12”, “14 days” for “24 hrs post-infection”; assay type: functional, organism-based; conditions: time 14.0 day
# Staphylococcus aureus [26] = assay: as §3, with “TNF-alpha activity” for “bacterial load”, “14 days by IHC analysis” for “72 hrs post-infection”; assay type: functional, organism-based; conditions: time 14.0 day
# Staphylococcus aureus [27] = assay: as §3, with “IL-1beta activity” for “bacterial load”, “14 days by IHC analysis” for “72 hrs post-infection”; assay type: functional, organism-based; conditions: time 14.0 day
# Staphylococcus aureus [28] = assay: as §3, with “in keratosis” for “in bacterial load”, “in wound surface” for “in skin”, “after 14 days by IHC analysis” for “after 72 hrs post-infection”; assay type: functional, organism-based; conditions: time 14.0 day
# [29] = Toxicity in Balb/c mouse assessed as change in liver co-efficient at 20 mg/kg, ip measured after 7 days; assay type: organism-based; conditions: in vivo, 168 h, time 7 day
# [30] = Toxicity in Balb/c mouse assessed as spleen atrophy at 20 mg/kg, ip measured after 7 days; assay type: organism-based; conditions: in vivo, 168 h, time 7 day
# [31] = Toxicity in Balb/c mouse assessed as kidney atrophy at 20 mg/kg, ip measured after 7 days; assay type: organism-based; conditions: in vivo, 168 h, time 7 day
# [32] = Toxicity in Balb/c mouse assessed as spleen pigmentation at 20 mg/kg, ip measured after 7 days; assay type: organism-based; conditions: in vivo, 168 h, time 7 day
# [33] = Toxicity in Balb/c mouse assessed as kidney pigmentation at 20 mg/kg, ip measured after 7 days; assay type: organism-based; conditions: in vivo, 168 h, time 7 day
# [34] = Toxicity in Balb/c mouse assessed as change in serum ALT level at 20 mg/kg, ip measured after 7 days; assay type: organism-based; conditions: in vivo, 168 h, time 7 day
# [35] = Toxicity in Balb/c mouse assessed as change in serum AST level at 20 mg/kg, ip measured after 7 days; assay type: organism-based; conditions: in vivo, 168 h, time 7 day
# [36] = Toxicity in Balb/c mouse assessed as change in serum BUN level at 20 mg/kg, ip measured after 7 days; assay type: organism-based; conditions: in vivo, 168 h, time 7 day
# [37] = Toxicity in Balb/c mouse assessed as change in serum CREA level at 20 mg/kg, ip measured after 7 days; assay type: organism-based; conditions: in vivo, 168 h, time 7 day
# [38] = Toxicity in Balb/c mouse assessed as cell swelling in kidney at 20 mg/kg, ip measured after 7 days by H and E staining based analysis; assay type: organism-based; conditions: in vivo, 168 h, time 7 day
# [39] = Toxicity in Balb/c mouse assessed as inflammatory cell infiltration in kidney at 20 mg/kg, ip measured after 7 days by H and E staining based analysis; assay type: organism-based; conditions: in vivo, 168 h, time 7 day
# [40] = Toxicity in Balb/c mouse assessed as cell swelling in liver at 20 mg/kg, ip measured after 7 days by H and E staining based analysis; assay type: organism-based; conditions: in vivo, 168 h, time 7 day
# [41] = Toxicity in Balb/c mouse assessed as inflammatory cell infiltration in liver at 20 mg/kg, ip measured after 7 days by H and E staining based analysis; assay type: organism-based; conditions: in vivo, 168 h, time 7 day
# [42] = Toxicity in Balb/c mouse assessed as cell swelling in lung at 20 mg/kg, ip measured after 7 days by H and E staining based analysis; assay type: organism-based; conditions: in vivo, 168 h, time 7 day
# [43] = Toxicity in Balb/c mouse assessed as cell swelling in spleen at 20 mg/kg, ip measured after 7 days by H and E staining based analysis; assay type: organism-based; conditions: in vivo, 168 h, time 7 day
smiles,measurement,setting,value
CNC(C)[C@@H]1CC[C@@H](N)[C@@H](O[C@H]2[C@H](O)[C@@H](O[C@H]3OC[C@](C)(O)[C@H](NC)[C@H]3O)[C@H](N)C[C@@H]2N)O1.CN[C@@H]1[C@@H](O)[C@@H](O[C@@H]2[C@@H](O)[C@H](O[C@H]3O[C@H](C(C)N)CC[C@H]3N)[C@@H](N)C[C@H]2N)OC[C@]1(C)O.CN[C@@H]1[C@@H](O)[C@@H](O[C@@H]2[C@@H](O)[C@H](O[C@H]3O[C@H](CN)CC[C@H]3N)[C@@H](N)C[C@H]2N)OC[C@]1(C)O (stereo not given in full),MIC,Staphylococcus aureus [1],16 µM
same,MIC,Staphylococcus aureus [2],16 µM
same,MIC,Staphylococcus aureus [3],128 µM
same,MIC,[4],1 µM
same,MIC,Enterococcus faecalis,16 µM
same,Activity,Staphylococcus aureus [5],Active
same,fold change (FC),Staphylococcus aureus [6],256
same,Activity,Staphylococcus aureus [7],Active
same,fold change (FC),Staphylococcus aureus [8],64
same,MIC,Staphylococcus aureus [9],128 µM
same,MIC,Staphylococcus aureus [10],128 µM
same,MIC,Staphylococcus aureus [11],128 µM
same,MIC,Staphylococcus aureus [12],128 µM
same,MIC,Staphylococcus aureus [13],> 128 µM
same,MIC,Staphylococcus aureus [14],> 128 µM
C[C@@H](O)[C@H]1C(=O)N2C(C(=O)O)=C(SCCNC=N)C[C@H]12 [IMIPENEM ANHYDROUS],MIC,Staphylococcus aureus [1],4 µM
same,MIC,Staphylococcus aureus [2],2 µM
same,MIC,Staphylococcus aureus [3],32 µM
same,MIC,[4],4 µM
same,MIC,Enterococcus faecalis,2 µM
same,fold change (FC),Staphylococcus aureus [15],64
same,Activity,Staphylococcus aureus [7],Active
same,fold change (FC),Staphylococcus aureus [16],2048
CC(C)CCCCC(=O)N[C@@H](CCN)C(=O)N[C@H](C(=O)N[C@@H](CCN)C(=O)N[C@H]1CCNC(=O)[C@H]([C@@H](C)O)NC(=O)[C@H](CCN)NC(=O)[C@H](CCN)NC(=O)[C@H](CC(C)C)NC(=O)[C@@H](Cc2ccccc2)NC(=O)[C@@H](CCN)NC1=O)[C@@H](C)O.CC[C@H](C)CCCCC(=O)N[C@@H](CCN)C(=O)N[C@H](C(=O)N[C@@H](CCN)C(=O)N[C@H]1CCNC(=O)[C@H]([C@@H](C)O)NC(=O)[C@H](CCN)NC(=O)[C@H](CCN)NC(=O)[C@H](CC(C)C)NC(=O)[C@@H](Cc2ccccc2)NC(=O)[C@@H](CCN)NC1=O)[C@@H](C)O (X1-[Dab]T[Dab][Dab][dDab][dF]L[Dab][Dab]T; lactam 4-C),Activity,Staphylococcus aureus [17],Active
same,Activity,Staphylococcus aureus [18],Active
same,Activity,Staphylococcus aureus [19],Active
same,Activity,Staphylococcus aureus [20],Active
same,Activity,Staphylococcus aureus [21],inactive
same,Activity,Staphylococcus aureus [22],Active
same,Activity,Staphylococcus aureus [23],Active
same,Activity,Staphylococcus aureus [24],Active
same,Activity,Staphylococcus aureus [25],Active
same,Activity,Staphylococcus aureus [26],Active
same,Activity,Staphylococcus aureus [27],Active
same,Activity,Staphylococcus aureus [28],Active
CC(C)CCCCC(=O)N[C@@H](CCN)C(=O)N[C@H](C(=O)N[C@@H](CCN)C(=O)N[C@H]1CCNC(=O)[C@H]([C@@H](C)O)NC(=O)[C@H](CCN)NC(=O)[C@H](CCN)NC(=O)[C@H](CC(C)C)NC(=O)[C@@H](Cc2ccccc2)NC(=O)[C@H](CCN)NC1=O)[C@@H](C)O.CC[C@H](C)CCCCC(=O)N[C@@H](CCN)C(=O)N[C@H](C(=O)N[C@@H](CCN)C(=O)N[C@H]1CCNC(=O)[C@H]([C@@H](C)O)NC(=O)[C@H](CCN)NC(=O)[C@H](CCN)NC(=O)[C@H](CC(C)C)NC(=O)[C@@H](Cc2ccccc2)NC(=O)[C@H](CCN)NC1=O)[C@@H](C)O (X1-[Dab]T[Dab][Dab][Dab][dF]L[Dab][Dab]T; lactam 4-C),Activity,[29],Toxic
same,Activity,[30],Toxic
same,Activity,[31],Toxic
same,Activity,[32],Toxic
same,Activity,[33],Toxic
same,Activity,[34],Non-toxic
same,Activity,[35],Non-toxic
same,Activity,[36],Non-toxic
same,Activity,[37],Toxic
same,Activity,[38],Toxic
same,Activity,[39],Toxic
same,Activity,[40],Toxic
same,Activity,[41],Toxic
same,Activity,[42],Toxic
same,Activity,[43],Toxic
